Source: PMC9231160, “Monoterpenoid Glycosides from the Leaves of Ligustrum robustum and Their Bioactivities” (Molecules, 2022)
“Also recorded” adds a separate entry of the source.

Legend:
[1] = DPPH radical scavenging assay; conditions: mean ± SD (n = 3), NA = no activity
Experimental: Statistical analyses were carried out on GraphPad Prism 5.01. All samples were measured in triplicate. The IC50 (the final concentration of sample needed to inhibit 50% of enzyme activity or scavenge 50% of free radical) was obtained by plotting the inhibition or scavenging percentage of each sample against its concentration. The results are reported as mean ± standard deviation (SD). Differences of means between groups were analyzed by one-way analysis of variance (ANOVA) on statistical package SPSS 13.0. The differences between groups were believed to be significant when p < 0.05.
(§1) S1.3. Determination of α-amylase inhibitory activity.
Phosphate buffer (20 mM, pH 6.9, containing 6 mM NaCl) was used as the solvent in this assay. Sample solution (50 μL, 50-1500 μM) and starch solution (50 μL, 1%, w/v) were mixed and incubated in a 96-well microplate at 37 °C for 10 min.
Then, α-amylase solution (50 μL, 0.2 U/mL) was added and the mixture was incubated at 37 °C for an additional 10 min. […] When the reaction solution cooled to room temperature, all samples were diluted by adding distilled water (50 μL), and then their absorbance was measured using a microplate reader at 540 nm. All samples had little background absorbance (phosphate buffer instead of starch solution) at 540 nm, thus the inhibitory activity was calculated as (Acontrol - Asample)/Acontrol × 100%, in which Asample was the absorbance of the sample and Acontrol was the absorbance of the phosphate buffer control without test samples. […]
The DPPH radical scavenging assay was used to evaluate the antioxidant activity of compounds 1-11. […] The absorbance of the reaction mixture was measured at 517 nm using a microplate reader. The DPPH scavenging activity was calculated by the following formula: DPPH scavenging activity (%) = (Acontrol - Asample)/Acontrol × 100%, where Acontrol was the absorbance of ethanol control without samples, Asample was the absorbance of sample. […]

[2] = ABTS radical scavenging assay; conditions: mean ± SD (n = 3)
Experimental: All samples were measured in triplicate. […] Differences of means between groups were analyzed by one-way analysis of variance (ANOVA) on statistical package SPSS 13.0. The differences between groups were believed to be significant when p < 0.05. […]
(§2) S1.4. DPPH radical scavenging assay […]
S1.5. ABTS radical scavenging assay
The ABTS radical scavenging assay was used also to evaluate the antioxidant
The ABTS free radical cation (ABTS•+ ) was
manufactured by reacting ABTS stock solution (7 mM) with potassium persulphate

α-Glucosidase from yeast = assay: α-glucosidase inhibitory activity; assay type: biochemical; conditions: for α-Glucosidase Inhibition at 0.1 mM: mean ± SD (n = 3), NA = no activity
Experimental: (§3) All samples were measured in triplicate. […] Differences of means between groups were analyzed by one-way analysis of variance (ANOVA) on statistical package SPSS 13.0. The differences between groups were believed to be significant when p < 0.05.
S1. Determination of bioactivities. […]
S1.2. Determination of α-glucosidase inhibitory activity. […]
diluted with phosphate buffer (0.1 M, pH 6.8). […]
and 4-nitrophenyl α-D-glucopyranoside (pNPG) solution (50 μL, 5 mM) were mixed and incubated in a 96-well microplate at 37 °C for 5 min. α-Glucosidase from yeast (50 μL, 0.2 U/mL) was added and incubated at 37 °C for another 30 min. Finally, 50 μL of Na2CO3 (1M) was added to terminate the reaction. The absorbance of mixture was measured using a microplate reader at a wavelength 405 nm. […]
following equation: α-glucosidase inhibition (%) = (Acontrol - Asample)/Acontrol × 100%, where Acontrol represented the absorbance of phosphate buffer control without test samples, Asample represented the absorbance of test samples. Acarbose was used as the […]

[3] = target: T1, fatty acid synthase (FAS) (Gallus gallus, UniProt P12276); assay: FAS inhibitory activity; assay type: biochemical, chicken; conditions: for IC50: FAS isolated from chicken liver, mean ± SD (n = 3), NA = no activity; for FAS inhibitory activity (in words): qualitative statement
T1 construct: isolated from chicken liver and kept in ice-bath; from tissue; host or cells: chicken liver
T1 sequence (P12276 whole entry): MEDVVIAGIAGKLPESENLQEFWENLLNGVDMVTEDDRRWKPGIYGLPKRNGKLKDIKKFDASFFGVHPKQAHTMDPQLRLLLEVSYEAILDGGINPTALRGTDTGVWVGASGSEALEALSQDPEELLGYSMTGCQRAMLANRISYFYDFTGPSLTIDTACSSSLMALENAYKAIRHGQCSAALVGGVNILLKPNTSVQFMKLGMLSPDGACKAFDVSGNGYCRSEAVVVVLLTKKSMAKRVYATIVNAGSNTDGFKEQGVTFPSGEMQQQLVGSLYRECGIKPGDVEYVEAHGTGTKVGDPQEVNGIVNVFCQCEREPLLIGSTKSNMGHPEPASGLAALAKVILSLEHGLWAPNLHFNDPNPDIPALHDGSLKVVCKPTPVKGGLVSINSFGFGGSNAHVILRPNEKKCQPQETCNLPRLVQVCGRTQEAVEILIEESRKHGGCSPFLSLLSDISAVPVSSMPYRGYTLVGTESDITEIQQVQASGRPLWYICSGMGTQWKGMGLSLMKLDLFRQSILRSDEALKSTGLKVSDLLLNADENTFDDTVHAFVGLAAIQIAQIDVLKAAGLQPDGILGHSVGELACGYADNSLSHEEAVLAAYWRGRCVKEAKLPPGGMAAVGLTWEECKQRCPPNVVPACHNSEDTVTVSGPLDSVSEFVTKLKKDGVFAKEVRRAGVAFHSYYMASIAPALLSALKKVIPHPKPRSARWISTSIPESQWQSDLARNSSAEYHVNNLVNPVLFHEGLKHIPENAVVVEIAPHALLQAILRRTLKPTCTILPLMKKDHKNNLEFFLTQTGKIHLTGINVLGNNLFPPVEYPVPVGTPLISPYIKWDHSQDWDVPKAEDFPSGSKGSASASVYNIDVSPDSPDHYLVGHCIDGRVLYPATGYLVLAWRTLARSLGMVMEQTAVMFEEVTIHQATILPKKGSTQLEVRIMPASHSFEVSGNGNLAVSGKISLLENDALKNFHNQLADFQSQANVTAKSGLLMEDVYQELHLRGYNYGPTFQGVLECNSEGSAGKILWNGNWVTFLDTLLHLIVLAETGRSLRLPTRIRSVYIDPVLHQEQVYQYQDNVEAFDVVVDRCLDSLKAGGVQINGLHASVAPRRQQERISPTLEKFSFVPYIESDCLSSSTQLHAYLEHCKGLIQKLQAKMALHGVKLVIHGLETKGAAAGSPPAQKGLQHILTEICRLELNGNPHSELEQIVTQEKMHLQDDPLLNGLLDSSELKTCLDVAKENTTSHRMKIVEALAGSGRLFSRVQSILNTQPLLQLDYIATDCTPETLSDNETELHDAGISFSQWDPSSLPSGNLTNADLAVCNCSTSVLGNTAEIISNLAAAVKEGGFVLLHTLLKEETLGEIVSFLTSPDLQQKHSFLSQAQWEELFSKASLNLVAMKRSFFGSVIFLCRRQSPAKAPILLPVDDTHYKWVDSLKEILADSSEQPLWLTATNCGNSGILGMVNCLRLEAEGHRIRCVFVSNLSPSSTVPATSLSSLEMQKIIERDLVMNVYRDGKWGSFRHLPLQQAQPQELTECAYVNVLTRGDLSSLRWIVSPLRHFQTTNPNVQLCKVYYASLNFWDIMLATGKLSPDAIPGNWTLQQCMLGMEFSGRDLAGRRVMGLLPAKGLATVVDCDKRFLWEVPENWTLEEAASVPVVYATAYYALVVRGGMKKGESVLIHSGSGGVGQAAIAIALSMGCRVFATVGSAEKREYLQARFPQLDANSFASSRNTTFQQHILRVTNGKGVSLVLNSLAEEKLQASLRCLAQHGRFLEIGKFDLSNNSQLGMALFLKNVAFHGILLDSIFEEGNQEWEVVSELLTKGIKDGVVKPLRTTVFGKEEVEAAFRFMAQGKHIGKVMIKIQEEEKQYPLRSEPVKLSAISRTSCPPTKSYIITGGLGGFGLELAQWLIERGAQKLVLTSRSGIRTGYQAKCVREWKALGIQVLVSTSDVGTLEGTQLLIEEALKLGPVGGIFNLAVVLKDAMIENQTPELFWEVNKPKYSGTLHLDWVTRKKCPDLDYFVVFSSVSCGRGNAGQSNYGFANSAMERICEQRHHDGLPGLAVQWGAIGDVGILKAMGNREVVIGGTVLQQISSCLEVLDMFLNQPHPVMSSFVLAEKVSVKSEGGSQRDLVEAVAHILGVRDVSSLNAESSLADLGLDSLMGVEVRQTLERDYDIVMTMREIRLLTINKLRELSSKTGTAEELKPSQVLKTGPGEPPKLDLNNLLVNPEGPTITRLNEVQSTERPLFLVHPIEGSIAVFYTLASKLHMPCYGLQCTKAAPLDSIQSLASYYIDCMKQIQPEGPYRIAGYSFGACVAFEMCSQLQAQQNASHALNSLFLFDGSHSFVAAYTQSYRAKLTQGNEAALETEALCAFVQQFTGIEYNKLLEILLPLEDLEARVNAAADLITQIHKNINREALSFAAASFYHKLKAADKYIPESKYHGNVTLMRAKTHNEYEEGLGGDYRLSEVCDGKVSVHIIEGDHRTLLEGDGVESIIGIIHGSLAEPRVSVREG
Experimental: as §3
S1. Determination of bioactivities.
S1.1. Determination of FAS inhibitory activity. […]
diluted with potassium phosphate buffer (0.1 M, pH 7.0). Sample solution (100 μL, 20-2000 μM, 37 °C) and FAS substrates (1.8 mL, 37 °C) were mixed in a cuvette, and then FAS solution (100 μL, 37 °C, isolated from chicken liver and kept in ice-bath before use) was added. The absorbance of reaction mixture was monitored by a UV-vis spectrophotometer at 340 nm in 1 min. The inhibitory effect was calculated by the following equation: FAS inhibition (%) = (Acontrol - Asample)/Acontrol × 100%, where Acontrol represented the FAS activity in the control group (phosphate buffer instead of sample solution), Asample represented the FAS activity in the sample groups. The FAS activity was calculated as (A0 - A1)/1 min, in which A0 was the absorbance of the reaction mixture when the FAS was added, and A1 was the absorbance of the reaction mixture after reaction 1 min. Orlistat was used as the positive control.
FAS substrates: 0.1 M potassium phosphate buffer (pH 7.0), 1 mM ethylene-

α-amylase = α-amylase inhibitory activity; assay type: biochemical; conditions: for α-Amylase Inhibition at 0.1 mM: mean ± SD (n = 3), NA = no activity
Experimental: as §3, §1
Phosphate buffer (20 mM, pH 6.9, containing 6 mM NaCl) was used as the […]
μL, 1%, w/v) were mixed and incubated in a 96-well microplate at 37 °C for 10 min.
Then, α-amylase solution (50 μL, 0.2 U/mL) was added and the mixture was incubated at 37 °C for an additional 10 min. The reaction was stopped by addition of […]
microplate was immediately heated in 95 °C water bath for 10 min. When the reaction solution cooled to room temperature, all samples were diluted by adding distilled water (50 μL), and then their absorbance was measured using a microplate reader at […]
starch solution) at 540 nm, thus the inhibitory activity was calculated as (Acontrol - Asample)/Acontrol × 100%, in which Asample was the absorbance of the sample and Acontrol was the absorbance of the phosphate buffer control without test samples. Acarbose was used as the positive control.
as §2

[4] = qualitative statement, compared with positive control acarbose

| Compound | IC50 [1] | IC50 [2] | α-Glucosidase Inhibition at 0.1 mM (α-Glucosidase from yeast) | α-glucosidase inhibitory effect (in words) (α-Glucosidase from yeast; [4]) | IC50 [3] | FAS inhibitory activity (in words) [3] | α-Amylase Inhibition at 0.1 mM (α-amylase) | α-amylase inhibitory effect (in words) (α-amylase; [4]) |
| --- | --- | --- | --- | --- | --- | --- | --- | --- |
| C=CC(C)(CCC=C(C)C)O[C@@H]1O[C@H](CO)[C@@H](OC(=O)/C=C/c2ccc(O)c(O)c2)[C@H](O[C@@H]2O[C@@H](C)[C@H](O)[C@@H](O)[C@H]2O)[C@H]1O (mixture of isomers) [Compound 1, 3(R)- and 3(S)-linaloyl-(3-O-α-L-rhamnopyranosyl)-(4-O-trans-caffeoyl)-O-β-D-glucopyranoside] | 19.7 ± 0.23 µM | 6.91 ± 0.1 µM | – | – | – | – | – | – |
| C=CC(C)(CCC=C(C)C)O[C@@H]1O[C@H](COC(=O)/C=C/c2ccc(O)cc2)[C@@H](O)[C@H](O[C@@H]2O[C@@H](C)[C@H](O)[C@@H](O)[C@H]2O)[C@H]1O (mixture of isomers) [Compound 2, 3(R)- and 3(S)-linaloyl-(3-O-α-L-rhamnopyranosyl)-(6-O-trans-p-coumaroyl)-O-β-D-glucopyranoside] | > 250 µM | 9.41 ± 0.22 µM | 48.1 ± 4.3 b % | weaker α-glucosidase inhibitory effect than the positive control acarbose; also recorded: moderate | 2.36 ± 0.1 µM | strong FAS inhibitory activity | 31.5 ± 0.5 b % | moderate |
| C=CC(C)(CCC(O)C(=C)C)O[C@@H]1O[C@H](COC(=O)/C=C/c2ccc(O)cc2)[C@@H](O)[C@H](O[C@@H]2O[C@@H](C)[C@H](O)[C@@H](O)[C@H]2O)[C@H]1O (stereo partly drawn) [Compound 3, 3-(3,6-dihydroxy-3,7-dimethyl-octa-1,7-dienyl)-(3-O-α-L-rhamnopyranosyl)-(6-O-trans-p-coumaroyl)-O-β-D-glucopyranoside] | – | 16 ± 0.69 µM | 27.3 ± 0.3 c % | – | 21.8 ± 0.38 µM | – | 32.5 ± 6.3 b % | – |
| C=CC(C)(CCC(O)C(C)(C)O)OC1OC(COC(=O)C=Cc2ccc(O)cc2)C(O)C(OC2OC(C)C(O)C(O)C2O)C1O (centres unmarked) [Compound 4] | – | 9.66 ± 0.17 µM | – | – | > 100 µM | – | 28.2 ± 3.9 b % | – |
| C=CC(C)(C/C=C/C(C)(C)OC)O[C@@H]1O[C@H](COC(=O)/C=C/c2ccc(O)cc2)[C@@H](O)[C@H](O[C@@H]2O[C@@H](C)[C@H](O)[C@@H](O)[C@H]2O)[C@H]1O (stereo partly drawn) [Compound 5, (5E)-3-(3-hydroxy-7-methoxy-3,7-dimethyl-octa-1,5-dienyl)-(3-O-α-L-rhamnopyranosyl)-(6-O-trans-p-coumaroyl)-O-β-D-glucopyranoside] | – | 6.93 ± 0.01 µM | 13.8 ± 2.0 d % | – | 23.7 ± 0.45 µM | – | 35.6 ± 2.0 b % | – |
| C=CC(C)(CCC=C(C)C)O[C@@H]1O[C@H](CO)[C@@H](OC(=O)/C=C/c2ccc(O)cc2)[C@H](O[C@@H]2O[C@@H](C)[C@H](O[C@@H]3O[C@@H](C)[C@H](O)[C@@H](O)[C@H]3O)[C@@H](O)[C@H]2O)[C@H]1O (stereo partly drawn) [Compound 6, linaloyl-[3-O-α-L-rhamnopyranosyl-(1→4)-α-L-rhamnopyranosyl]-(4-O-trans-p-coumaroyl)-O-β-D-glucopyranoside] | – | 11.3 ± 0.16 µM | 12.0 ± 1.7 d % | – | 4.78 ± 0.14 µM | strong FAS inhibitory activity | 26.1 ± 3.0 b % | – |
| C=CC(C)(CCC=C(C)C)O[C@@H]1O[C@H](CO)[C@@H](OC(=O)/C=C\c2ccc(O)cc2)[C@H](O[C@@H]2O[C@@H](C)[C@H](O[C@@H]3O[C@@H](C)[C@H](O)[C@@H](O)[C@H]3O)[C@@H](O)[C@H]2O)[C@H]1O (stereo partly drawn) [Compound 7, linaloyl-[3-O-α-L-rhamnopyranosyl-(1→4)-α-L-rhamnopyranosyl]-(4-O-cis-p-coumaroyl)-O-β-D-glucopyranoside] | – | 20.2 ± 0.33 µM | – | – | > 100 µM | – | – | – |
| COC(C)(C)C=CCC(C)=CCOC1OC(COC(=O)C=Cc2ccc(O)cc2)C(O)C(OC2OC(C)C(O)C(O)C2O)C1O (centres unmarked) [Compound 8] | – | 19.5 ± 0.46 µM | 24.7 ± 3.5 c % | – | 25.8 ± 0.47 µM | – | 31.4 ± 1.9 b % | – |
| C=C(C)C(O)CCC(C)=CCOC1OC(CO)C(OC(=O)C=Cc2ccc(O)cc2)C(OC2OC(C)C(O)C(O)C2O)C1O (centres unmarked) [Compound 9] | – | 18.7 ± 0.47 µM | 12.4 ± 5.6 d % | – | 21.7 ± 0.46 µM | – | 29.2 ± 8.4 b % | – |
| CC(C)=CCC/C(C)=C/CO[C@@H]1O[C@H](CO)[C@@H](OC(=O)/C=C/c2ccc(O)cc2)[C@H](O[C@@H]2O[C@@H](C)[C@H](O)[C@@H](O)[C@H]2O)[C@H]1O [Compound 10, ligurobustoside C] | – | 15.1 ± 0.1 µM | 28.7 ± 2.1 c % | – | 4.68 ± 0.16 µM | strong FAS inhibitory activity | – | – |
| CC(=CCOC1OC(CO)C(OC(=O)C=Cc2ccc(O)cc2)C(OC2OC(C)C(O)C(O)C2O)C1O)CCC(O)C(C)(C)O (centres unmarked) [Compound 11] | – | 7.92 ± 0.23 µM | – | – | 61.74 ± 0.45 µM | – | 31.3 ± 1.3 b % | – |
| O=C1O[C@H]([C@@H](O)CO)C(O)=C1O [L-(+)-ascorbic acid, reference compound] | 13.66 ± 0.13 µM | – | – | – | – | – | – | – |
